Values of other authors, collected in patent publication US9549940B2, “Sustained-release formulations of topiramate” (Supernus Pharmaceuticals, Inc., priority 2006, dated 2017).

Experiments:
[1] = oral administration of an immediate release dosage form
[2] = room temperature

time of plasma drug concentration peak [1]: approximately 2 hours
solubility of topiramate in water [2]: about 9.8 mg/ml
SMILES: CC1(C)OC2[C@@H](CO[C@@]3(COS(N)(=O)=O)OC(C)(C)O[C@@H]23)O1 (stereo partly drawn) [topiramate, 2,3:4,5-Di-O-isopropylidene-beta-D-fructopyranose sulfamate]
